Test results as given in patent US20050250853A1, “Beta-tubulin inhibitors” (priority 1999, published 2005).
“Also recorded” adds a separate entry of the source. Where two headings read alike, the source gives them in different places. Marks after values point to notes of the source that are not given here.

Experiments:
α-tubulin = assay: Western blot for α-tubulin modification; assay type: cell-based, human; conditions: data not shown
CHO VV 3-2 cells = assay: MTT cytotoxicity on vinblastine- and colchicine-resistant CHO cells expressing mutated tubulin; assay type: cell-based, Chinese hamster; conditions: Cricetulus griseus, CHO-VV 3-2, 120 h, read-out: IC50 CHO VV 3-2
Experimental: (§1) Human breast carcinoma cell line, MDA-MB-231, was obtained from the American Type Culture Collection (ATCC HTB-26; Bethesda, Md.). MDA-MB-231 cells were grown in RPMI 1640 medium supplemented with 10% bovine calf serum (Hyclone, Road Logan, Utah). […] These cells were cultured in RPMI 1640 containing 10% fetal bovine serum. SK—N—SH human neuroblastoma cells, (ATCC HTB-11; Bethesda, Md.) were cultured in MEM medium supplemented with 2 mM L-glutamine, 1.5 g/liter sodium bicarbonate, 0.1 mM non-essential amino acids, 1 mM sodium pyruvate and 10% fetal bovine serum. Cells were cultured in a humidified atmosphere at 37° C. in 5% CO2.
(§2) Cytotoxicity was assessed using the MTT assay (3-(4,5-dimethylthiazol-2-yl)-2,5-diphenyltetrazolium bromide) as described by Carmichael et al. (12).
(§3) The cytotoxicity of 4-tBCEU, 4-iPCEU and 4-sBCEU in two CHO cell lines having differential sensitivity to antmicrotubule agents was evaluated. These cell lines are derived from parental CHO-10001 cells and express mutated tubulins.

[1] = Kinetics of alkylation of 4-(4-nitrobenzyl)pyridine (colorimetric assay); assay type: physicochemical; conditions: 80° C., pH 4.3, absorbance at 570 nm, linear regression, mean ± SD
Experimental: The rate constant of alkylation (K′) of CEU derivatives and chlorambucil was evaluated by a […] assay as described by Bardos et al (13). Briefly, 1 ml of a 10% (v/v) solution of 4-(4-nitrobenzyl)pyridine in ethanol and 1 ml of 50 mM sodium acetate (pH 4.3) were added to an ethanol solution (95%) containing 400 nmol per ml of either chlorambucil or CEU and heated to 80° C. in a shaking water bath for 60, 90, 120 or 150 min. The reaction was stopped by cooling the mixtures on ice for 5 min. Then, 1.5 ml of 0.1 M KOH: ethanol (1:2, v/v) were added to the reaction mixture. Samples were vortexed for 12 sec and set aside for 2.5 min prior to reading the absorbance at 570 nm. The values were compared with those obtained using a blank sample containing all reagents except the alkylating agent.

[2] = system: CHO 10001 cells (wild-type); assay: MTT cytotoxicity on wild-type CHO cells; assay type: cell-based, Chinese hamster; conditions: Cricetulus griseus, CHO10001, 120 h, read-out: IC50 CHO 10001
Experimental: as §1, §2, §3

MDA-MB-231 cells [3] = assay: Cell cycle analysis by propidium iodide flow cytometry; assay type: cell-based, human; conditions: CEU derivatives at 30 μM, 24 h; flow cytometry
Experimental: FIG. 1. Effect of CEU derivatives on cell cycle. Exponentially growing MDA-MB-231 cells were incubated in the absence or presence of 30 μM of either 4-tBCEU, 4-iPCEU or 4-sBCEU for 24 and 48 h, respectively, at 37° C. The cell cycle was evaluated using propidium iodide staining and flow cytometric analysis. Data are representative of three independent experiments.
Following incubation of MDA-MB-231 cells with 4-tBCEU, 4-iPCEU or 4-sBCEU, the cells were harvested, resuspended in 1 ml PBS and fixed by the addition of 2.4 ml of ice cold anhydrous ethanol. Then, 5×10^5 cells from each sample were centrifuged for 3 min at 1000×g. Cell pellets were resuspended in PBS containing 50 μg/ml of PI and 40 U/ml of ribonuclease A (Boehringer Mannheim, Laval, Calif.). Mixtures were incubated at room temperature for 30 min and cell cycle distribution was analyzed using an Epics Elite ESP flow cytometer (Coulter Corporation, Miami, Fla., USA).
The effect of CEU, namely 4-tBCEU, 4-PCEU and 4-sBCEU, on the cell cycle was analyzed. To this end, exponentially growing MDA-MB-231 cells were treated with 30 μM 4-tBCEU, 4-iPCEU or 4-sBCEU for 24 or 48 h followed by an evaluation of cell cycle distribution by flow cytometry using propidium iodide, a fluorescent DNA dye. […] Induction of mitosis blockage in prophase by CEU derivatives was confirmed by mitotic index analysis as described by Drouin (22).

β-tubulin [4] = assay: Separation of soluble and polymerized tubulins, Western blot of β-tubulin; assay type: cell-based, human; conditions: MDA-MB-231 cells, 30 μM, 24 h and 48 h
Experimental: FIG. 2. Effects of CEU derivatives on microtubule depolymerization. Exponentially growing MDA-MB-231 cells were incubated in the absence or the presence of 30 μM of CEU derivatives including (A) 4-tBCEU, 4-iPCEU or 4-sBCEU for 24 and 48 h respectively; (B) 2-ECEU, 3-ECEU or 4-ECEU for 24 and 48 h; and (C) 4-tBEU, 4-iPEU, 4-sBEU, 4-tBCPU, CEU or 4-methoxyCEU for 48 h. Free tubulin and microtubule fractions were isolated and analyzed by Western blot. Data are representative of three different experiments.
Separation of soluble and polymerized tubulins from MDA-MB231 cells was carried out as described by Minotti et al. (14) with minor modifications. Briefly, after drug exposure, about 5×10^6 cells in 100-mm petri dishes were washed with PBS at 37° C. and harvested in 3 ml of PBS containing 0.4 μg/ml of taxol using a rubber policeman.
Cells were centrifuged and lysed using 250 μl of microtubule-stabilizing buffer (20 mM Tris-HCl, pH 6.8, 140 mM NaCl, 1 mM MgCl2, 2 mM EDTA, 0.5% Nonidet P-40 and 0.4 μg/ml taxol), and then transferred to 1.5 ml microcentrifuge tubes. Samples were centrifuged at 12,000×g for 10 min at 4° C. and the supernatants containing soluble tubulin were placed in separate microcentrifuge tubes containing 250 μl of 2× Laemmli sample buffer (15). Pellets containing the polymerized tubulin were resuspended in 250 μl of water, followed by two freeze/thawing cycles, and the addition of 250 μl of 2× Laemmli sample buffer. Samples were analyzed by SDS-PAGE and immunoassay was performed as described below.
Samples (1×10^5 cells) were analyzed by 10% SDS-PAGE using the Laemmli system (15). Membranes were then incubated with PBSMT (PBS, pH 7.4, 5% fat-free dry milk and 0.1% Tween-20) for 1 h at room temperature, and then with 1:500 monoclonal anti-β-tubulin (clone TUB 2.1, Sigma) or 1:400 anti (clone no. SDL.3D10, Sigma) for 1 h. […] Membranes were washed with PBSMT and incubated with 1:2500 peroxidase-conjugated anti-mouse immunoglobulin (Amersham Canada, Oakville, Canada) in PBSMT for 30 min. Detection of the immunoblot was carried out with the ECL Western blotting detection reagent kit (Amersham Canada, Oakville, Canada).

MDA-MB-231 cells [5] = assay: cells; assay type: cell-based, human; conditions: for IC50: MTT assay, mean ± SD, read-out: IC50 (μM) MDA-MB-231
Experimental: (§4) Human breast carcinoma cell line, MDA-MB-231, was obtained from the American Type Culture Collection (ATCC HTB-26; Bethesda, Md.). MDA-MB-231 cells were grown in RPMI 1640 medium supplemented with 10% bovine calf serum (Hyclone, Road Logan, Utah). Wild-type Chinese Hamster Ovary cells (CHO-10001) (7), colchicine- and vinblastine-resistant (CHO-VV 3-2) (8) and taxol-resistant (CHO-TAX 5-6) cells (9) were generously provided by Dr. Fernando Cabral (University of Texas Medical School, Houston, Tex.). These cells were cultured in RPMI 1640 containing 10% fetal bovine serum. SK—N—SH human neuroblastoma cells, (ATCC HTB-11; Bethesda, Md.) were cultured in MEM medium supplemented with 2 mM L-glutamine, 1.5 g/liter sodium bicarbonate, 0.1 mM non-essential amino acids, 1 mM sodium pyruvate and 10% fetal bovine serum. Cells were cultured in a humidified atmosphere at 37° C. in 5% CO2.
as §2

CHO TAX 5-6 cells = assay: MTT cytotoxicity on taxol-resistant CHO cells expressing mutated tubulin; assay type: cell-based, Chinese hamster; conditions: Cricetulus griseus, CHO-TAX 5-6, 120 h, read-out: IC50 CHO TAX 5-6
Experimental: as §1, §2, §3

βIII-tubulin = biological target: T1, βIII-tubulin (Homo sapiens, UniProt Q13509); assay: Alkylation of βIII-tubulin in SK-N-SH cells; assay type: cell-based
T1 construct: SK—N—SH cells, which express significant amounts of neuronal-specific βIII-tubulin; endogenous in cells; host or cells: SK-N-SH (ATCC HTB-11)
Experimental: FIG. 7. Localization of the site of alkylation by CEU on β-tubulin. Exponentially growing SK—N—SH cells were incubated in the absence or the presence of 30 μM and 100 μM [urea-^14C]-4-tBCEU for 24 h and 48 h, respectively. Total protein extracts were separated electrophoretically on 10% polyacrylamide gels. […] Results are representative of two independent experiments.
as §4
Samples (1×10^5 cells) were analyzed by 10% SDS-PAGE using the Laemmli system (15). […]

β-tubulin [6] = assay: Protein alkylation by [urea-14C]-4-tBCEU in MDA-MB-231 cells (autoradiography, immunoblot, kinetics); assay type: cell-based, human
Experimental: FIG. 3. Protein alkylation induced by treatment with [urea-^14C]-4-tBCEU. (A) Post-nuclei protein extracts from MDA-MB-231 cells incubated with 30 or 100 μM of [urea-^14C]-4-tBCEU for 12 and 24 h. […] The protein extracts were analyzed by SDS-PAGE. […] Data are representative of four different experiments. The arrow points to β-tubulin.
FIG. 5. Kinetics of β-tubulin alkylation and microtubule disruption induced by [urea-^14C]-4-tBCEU. Exponentially growing MDA-MB231 cells were incubated with 30 μM [urea-^14C]-4-tBCEU for 0, 1, 4, 8, 12, 18, 24 and 48 h. (A) Free tubulin and microtubule fractions were isolated and analyzed by Western blotting; (B) [urea-^14C]-4-tBCEU-labeled proteins were visualized by autoradiography. Data are representative of three different experiments.
Cells (˜5×10^6) were incubated with 30 or 100 μM [^14C]-tBCEU for 12 or 24 h and then washed with PBS and harvested by scraping in lysis buffer (5 mM Hepes pH 7.4, 1 mM MgCl2, 10 mM KCl, 1 mM CaCl2, 1 mM PMSF, 1 mM benzamidine and 1 mM aprotinin). Cell lysates were homogenized using a tissue grinder and the final sucrose concentration of each sample was adjusted to 250 mM. Samples were centrifuged at 600×g for 10 min at 4° C. to isolate the post-nuclear supernatant. The pellets, containing nuclei and intact cells, were discarded and the post-nuclear supernatant was recentrifuged at 90,000 rpm using a Rotor TLA-100.1 in a Beckman TL-100 ultracentrifuge for 30 min to separate the cytosolic fraction (C) from the insoluble fraction (M) containing the membrane components and mitochondria. One volume of 2× Laemmli sample buffer was then added to the supernatant (C) and the pellet (M) was resuspended in 200 μl of Laemmli sample buffer. Samples were boiled for 5 min and kept at −20° C. until analysis.
Samples (1×10^5 cells) were analyzed by 10% SDS-PAGE using the Laemmli system (15). Membranes were then incubated with PBSMT (PBS, pH 7.4, 5% fat-free dry milk and 0.1% Tween-20) for 1 h at room temperature, and then with 1:500 monoclonal anti-β-tubulin (clone TUB 2.1, Sigma) or 1:400 anti (clone no. SDL.3D10, Sigma) for 1 h. […]

T1 sequence (Q13509 whole entry): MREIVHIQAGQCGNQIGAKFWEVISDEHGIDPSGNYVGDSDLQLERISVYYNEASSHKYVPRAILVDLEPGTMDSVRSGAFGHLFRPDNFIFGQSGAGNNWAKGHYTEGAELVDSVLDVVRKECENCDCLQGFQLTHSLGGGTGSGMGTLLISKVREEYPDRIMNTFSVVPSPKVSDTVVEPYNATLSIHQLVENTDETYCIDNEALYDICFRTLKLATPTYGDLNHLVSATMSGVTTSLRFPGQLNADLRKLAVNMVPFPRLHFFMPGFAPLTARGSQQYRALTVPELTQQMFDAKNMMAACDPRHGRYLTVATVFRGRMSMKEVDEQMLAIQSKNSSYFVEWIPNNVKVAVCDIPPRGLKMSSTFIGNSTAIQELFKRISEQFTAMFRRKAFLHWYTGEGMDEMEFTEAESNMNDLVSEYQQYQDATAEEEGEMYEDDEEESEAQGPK
T1 sequence (P68363 whole entry partner): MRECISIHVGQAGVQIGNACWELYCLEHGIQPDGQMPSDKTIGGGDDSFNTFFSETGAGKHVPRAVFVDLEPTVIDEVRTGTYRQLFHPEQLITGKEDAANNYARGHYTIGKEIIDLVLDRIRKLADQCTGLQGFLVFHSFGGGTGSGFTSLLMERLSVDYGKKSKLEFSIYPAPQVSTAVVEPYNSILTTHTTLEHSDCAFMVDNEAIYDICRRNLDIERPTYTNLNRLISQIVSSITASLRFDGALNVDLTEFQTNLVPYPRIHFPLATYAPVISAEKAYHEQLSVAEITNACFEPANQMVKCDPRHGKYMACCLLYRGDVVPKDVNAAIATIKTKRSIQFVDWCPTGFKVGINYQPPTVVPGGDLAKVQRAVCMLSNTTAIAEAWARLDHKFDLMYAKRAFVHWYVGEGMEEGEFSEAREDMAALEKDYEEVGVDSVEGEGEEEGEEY

SMILES	α-tubulin modification (α-tubulin)	IC50 (CHO VV 3-2 cells)	K′ (constant of alkylation of 4-(4-nitrobenzyl)pyridine) [1]	IC50 [2]	accumulation of cells in G2+M (MDA-MB-231 cells [3])	microtubule depolymerization (β-tubulin [4])	formation of modified β-tubulin (second immunoreactive band of lower Mr) (β-tubulin [4]; free tubulin fraction)	cytotoxicity in words (active / inactive CEU) (MDA-MB-231 cells [5])	IC50 (MDA-MB-231 cells [5]; Homo sapiens, MDA-MB-231, concentration inhibiting 50% of cell growth)	IC50 (MDA-MB-231 cells [5]; concentration inhibiting 50% of cell growth)	IC50 (CHO TAX 5-6 cells)	alkylation of βIII-tubulin (βIII-tubulin; 30 and 100 μM, 24 h and 48 h, autoradiography)	migration on SDS-PAGE of βIII-tubulin (βIII-tubulin; Western blot (FIG. 7A))	incubation time at which modified β-tubulin appears (immunoblot) (β-tubulin [6]; 30 μM (FIG. 5A))	incubation time at which 14C-labeled modified β-tubulin appears (autoradiography) (β-tubulin [6]; 30 μM (FIG. 5B))	incubation time to complete microtubule disruption (β-tubulin [6]; 30 μM, Western blot (FIG. 5A))
CC(C)(C)c1ccc(NC(=O)NCCCl)cc1 [Example 4-tBCEU, 4-tert-butyl[3-(2-chloroethyl)ureido]benzene]	no electrophoretic evidence for α-tubulin modification	21.3 ± 1.1 µM	3.1 ± 0.3^a	11.6 ± 0.7 µM	significant accumulation of cells in the G2+M	complete microtubule depolymerization	second immunoreactive band; also recorded: induced in a dose-dependent manner	active	4 µM	4.6 ± 0.3 µM	4.6 ± 0.3 µM	–	–	–	–	–
CC(C)(C)c1ccc(N[14C](=O)NCCCl)cc1 [[urea-^14C]-4-tBCEU]	–	–	–	–	–	–	–	–	–	–	–	βIII-tubulin is not alkylated	does not alter migration of the β-tubulin on SDS-PAGE	12 h	1 to 4 h	8 to 12 h
